Values of other authors as cited in patent US20100035998A1, “COMBINATION S-NITROSOTHIOL PHARMACEUTICAL PRODUCTS FOR RESTORING NORMAL BREATHING RHYTHMS” (Galleon Pharmaceutical, Inc, priority 2005, published 2010).

Columns and labels:
upper airway tone = details: animals
central apnea patients = details: low doses
[1] = system: patients that had predominantly obstructive sleep apnea; details: low doses; patients with predominantly obstructive sleep apnea

Row | SMILES | effect on tone of the upper airway (upper airway tone) | apnea episodes after one month of treatment (central apnea patients; 25.5 pre-treatment) | decrease in apnea episodes (central apnea patients; pre-treatment vs after one month of treatment) | reduction in apnea episodes [1]
1 | CN1CCN2c3ncccc3Cc3ccccc3C2C1 (stereo not shown) [Mirtazapine] | help restore the tone of the upper airway to prevent collapse |  |  | 
2 | CC(=O)Nc1nnc(S(N)(=O)=O)s1 [acetazolamide] |  | 6.8 | 73% | about 25%
